ChEMBL document CHEMBL1201862, “PubChem BioAssay data set” (2004)
Activity calls are given as the source filed them.

Key:
[1] = target: T1, Short transient receptor potential channel 4 (Mus musculus, UniProt Q9QUQ5); assay: calcium entry via TRPC4 opening agents – cell-based, HEK293 TRPC4/mu-opioid, Fluo-4 calcium, dose response (AID 434937); type: functional
T1 sequence (Q9QUQ5 whole entry): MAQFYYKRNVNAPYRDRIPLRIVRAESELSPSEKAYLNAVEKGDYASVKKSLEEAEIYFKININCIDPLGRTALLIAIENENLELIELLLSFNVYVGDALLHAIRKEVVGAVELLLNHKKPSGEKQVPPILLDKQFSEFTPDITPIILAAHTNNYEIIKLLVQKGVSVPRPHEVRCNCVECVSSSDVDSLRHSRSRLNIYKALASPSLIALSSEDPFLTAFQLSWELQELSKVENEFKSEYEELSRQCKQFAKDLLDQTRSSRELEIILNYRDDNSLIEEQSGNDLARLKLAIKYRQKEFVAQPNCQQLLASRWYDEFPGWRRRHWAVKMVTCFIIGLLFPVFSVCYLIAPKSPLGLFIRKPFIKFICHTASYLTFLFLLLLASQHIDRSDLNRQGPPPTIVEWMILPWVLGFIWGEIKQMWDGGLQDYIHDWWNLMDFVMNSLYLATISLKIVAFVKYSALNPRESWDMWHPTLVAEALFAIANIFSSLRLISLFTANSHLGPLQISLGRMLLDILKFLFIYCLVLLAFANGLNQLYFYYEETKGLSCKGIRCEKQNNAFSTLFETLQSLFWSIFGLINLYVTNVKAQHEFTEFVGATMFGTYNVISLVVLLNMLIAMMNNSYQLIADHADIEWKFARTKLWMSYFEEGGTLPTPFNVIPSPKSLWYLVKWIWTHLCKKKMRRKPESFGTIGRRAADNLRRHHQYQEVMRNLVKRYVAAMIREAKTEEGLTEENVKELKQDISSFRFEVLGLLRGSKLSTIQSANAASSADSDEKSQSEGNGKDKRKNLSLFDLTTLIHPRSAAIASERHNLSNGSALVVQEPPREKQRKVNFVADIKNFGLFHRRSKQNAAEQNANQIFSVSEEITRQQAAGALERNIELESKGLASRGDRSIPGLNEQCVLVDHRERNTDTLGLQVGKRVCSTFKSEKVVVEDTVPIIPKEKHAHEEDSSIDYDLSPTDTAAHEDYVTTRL

[2] = HEK-293T viability loss after treatment – luminescence, T-cell screen hits, cytotoxicity control for TCR NF-kB inhibitor project, dose response (AID 489026); type: functional, cell-based;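 also: cells exposed to compound about 14 hours before the viability readout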
[3] = target: Genome polyprotein (dengue virus type 2, UniProt P29990); assay: flavivirus cap methylation enzyme inhibition – biochemical, confirmation dose response, primary screen (AID 588689); type: functional
Chain of Genome polyprotein (P29990 2492-3391 limits assumed): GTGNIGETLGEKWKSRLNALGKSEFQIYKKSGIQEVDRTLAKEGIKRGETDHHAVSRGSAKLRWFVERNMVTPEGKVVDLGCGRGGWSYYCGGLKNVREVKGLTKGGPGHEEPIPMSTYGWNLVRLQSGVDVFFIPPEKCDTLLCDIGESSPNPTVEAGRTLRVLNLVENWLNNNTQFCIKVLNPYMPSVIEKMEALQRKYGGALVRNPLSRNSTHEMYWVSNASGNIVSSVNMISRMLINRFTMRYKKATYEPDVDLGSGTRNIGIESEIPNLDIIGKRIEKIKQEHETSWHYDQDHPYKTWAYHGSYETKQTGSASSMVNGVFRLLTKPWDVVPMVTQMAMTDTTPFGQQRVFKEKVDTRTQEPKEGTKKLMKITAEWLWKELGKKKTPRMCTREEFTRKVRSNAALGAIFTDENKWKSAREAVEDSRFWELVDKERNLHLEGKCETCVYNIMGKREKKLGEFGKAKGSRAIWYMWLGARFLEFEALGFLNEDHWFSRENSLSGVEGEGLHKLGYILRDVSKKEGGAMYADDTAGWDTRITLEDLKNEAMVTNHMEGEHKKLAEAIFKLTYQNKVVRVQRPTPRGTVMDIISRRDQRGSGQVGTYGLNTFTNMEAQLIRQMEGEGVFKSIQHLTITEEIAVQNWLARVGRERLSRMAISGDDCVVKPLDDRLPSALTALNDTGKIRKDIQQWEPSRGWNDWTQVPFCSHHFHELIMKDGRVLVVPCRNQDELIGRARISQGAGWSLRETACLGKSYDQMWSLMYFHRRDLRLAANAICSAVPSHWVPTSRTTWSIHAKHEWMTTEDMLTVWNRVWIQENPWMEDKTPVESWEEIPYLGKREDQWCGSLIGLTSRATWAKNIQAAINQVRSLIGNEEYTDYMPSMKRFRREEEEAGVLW

[4] = target: DNA dC->dU-editing enzyme APOBEC-3A (Homo sapiens, UniProt P31941); assay: Dose Response confirmation of small molecule APOBEC3A DNA Deaminase Inhibitors via a fluorescence-based single-stranded DNA deaminase assay. [Related pubchem assays (depositor defined):AID493011, AID493024]; type: functional
Chain of DNA dC->dU-editing enzyme APOBEC-3A (P31941 whole entry, the tested form may be a part): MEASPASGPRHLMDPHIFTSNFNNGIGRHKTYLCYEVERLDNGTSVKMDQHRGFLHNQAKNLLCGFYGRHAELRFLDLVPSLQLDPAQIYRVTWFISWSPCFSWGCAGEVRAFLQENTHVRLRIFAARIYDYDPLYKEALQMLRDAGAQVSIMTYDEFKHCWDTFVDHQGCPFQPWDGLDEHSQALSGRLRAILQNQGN

[5] = target: T2, Carboxy-terminal domain RNA polymerase II polypeptide A small phosphatase 1 (Homo sapiens, UniProt Q9GZU7); assay: CTDSP1 inhibitors, concentration-response, biochemical, absorbance readout, ultra-high-throughput screen actives (AID 540297); type: functional
T2 sequence (Q9GZU7 whole entry): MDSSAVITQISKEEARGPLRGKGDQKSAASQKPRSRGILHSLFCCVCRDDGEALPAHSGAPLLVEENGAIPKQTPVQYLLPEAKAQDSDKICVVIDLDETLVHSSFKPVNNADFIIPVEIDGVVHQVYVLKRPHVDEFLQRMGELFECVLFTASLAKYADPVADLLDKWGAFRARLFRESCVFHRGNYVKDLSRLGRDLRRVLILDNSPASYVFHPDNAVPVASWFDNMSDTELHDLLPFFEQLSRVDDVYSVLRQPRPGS

[6] = target: T3, Mannose-6-phosphate isomerase (Homo sapiens, UniProt P34949); assay: MPI enzyme activity inhibition – biochemical, fluorescence intensity, coupled assay, primary screen (AID 1209)
T3 sequence (P34949 whole entry): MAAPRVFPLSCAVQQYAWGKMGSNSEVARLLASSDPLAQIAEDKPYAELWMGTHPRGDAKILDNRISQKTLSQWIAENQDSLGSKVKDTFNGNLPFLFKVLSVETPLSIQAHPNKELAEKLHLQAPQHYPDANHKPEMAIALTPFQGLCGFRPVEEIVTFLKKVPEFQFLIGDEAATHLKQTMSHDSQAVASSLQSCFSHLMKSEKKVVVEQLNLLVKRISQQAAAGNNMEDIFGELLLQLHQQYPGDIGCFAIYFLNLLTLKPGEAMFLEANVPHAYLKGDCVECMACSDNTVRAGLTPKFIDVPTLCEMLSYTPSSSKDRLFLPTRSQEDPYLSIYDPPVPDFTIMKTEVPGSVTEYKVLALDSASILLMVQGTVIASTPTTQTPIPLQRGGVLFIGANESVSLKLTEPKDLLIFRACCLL

[7] = target: T4, Rac GTPase-activating protein 1 (Homo sapiens, UniProt Q9H0H5); assay: blockers of MgcRacGAP-driven Rac1 GTP hydrolysis – biochemical, ADP Hunter fluorescence, primary and confirmatory, confirmation (AID 624330); type: functional
T4 sequence (Q9H0H5 whole entry): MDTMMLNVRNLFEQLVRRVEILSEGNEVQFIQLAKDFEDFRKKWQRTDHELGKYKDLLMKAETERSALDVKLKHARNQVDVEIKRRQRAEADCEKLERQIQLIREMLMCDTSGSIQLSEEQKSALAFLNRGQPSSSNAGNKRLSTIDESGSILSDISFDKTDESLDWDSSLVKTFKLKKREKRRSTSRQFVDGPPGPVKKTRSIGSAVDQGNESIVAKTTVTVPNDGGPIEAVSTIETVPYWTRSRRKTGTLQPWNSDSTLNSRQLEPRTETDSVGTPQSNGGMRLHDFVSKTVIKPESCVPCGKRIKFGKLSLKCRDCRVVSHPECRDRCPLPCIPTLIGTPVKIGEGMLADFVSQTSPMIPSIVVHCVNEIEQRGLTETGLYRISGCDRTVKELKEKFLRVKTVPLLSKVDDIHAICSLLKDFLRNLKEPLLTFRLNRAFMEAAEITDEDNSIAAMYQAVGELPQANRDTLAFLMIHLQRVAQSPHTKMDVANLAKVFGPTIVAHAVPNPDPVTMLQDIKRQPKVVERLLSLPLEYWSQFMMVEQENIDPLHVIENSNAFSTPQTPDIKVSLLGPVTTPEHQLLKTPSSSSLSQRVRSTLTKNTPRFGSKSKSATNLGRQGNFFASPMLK

[8] = target: DNA dC->dU-editing enzyme APOBEC-3G (Homo sapiens, UniProt Q9HC16); type: functional;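 also: Dose-response counterscreen measuring inhibition of APOBEC3G DNA deaminase activity, run while confirming APOBEC3A inhibitors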
[9] = target: T3, Mannose-6-phosphate isomerase; assay: phosphomannose isomerase inhibition – biochemical, fluorescence intensity, confirmation (AID 1535)
[10] = target: T5, Phosphomannomutase 2 (Homo sapiens, UniProt O15305); assay: Counter screen SAR assay for PMM2 inhibitors via a fluorescence intensity assay. [Related pubchem assays (depositor defined):AID1545, AID1574]
T5 sequence (O15305 whole entry): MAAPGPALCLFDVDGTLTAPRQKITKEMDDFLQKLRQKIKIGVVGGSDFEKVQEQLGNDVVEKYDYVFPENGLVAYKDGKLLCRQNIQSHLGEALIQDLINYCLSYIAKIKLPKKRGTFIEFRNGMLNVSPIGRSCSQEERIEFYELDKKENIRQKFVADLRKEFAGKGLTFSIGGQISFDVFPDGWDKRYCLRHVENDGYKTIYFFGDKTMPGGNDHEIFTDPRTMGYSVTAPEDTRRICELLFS

[11] = target: Induced myeloid leukemia cell differentiation protein Mcl-1 (Homo sapiens, UniProt Q07820); type: functional
[12] = target: Beta-galactosidase (Escherichia coli, UniProt Q8VNN2); assay: Dose response counterscreen for EBI2 assay utilizing the enzyme, b-galactosidase.; type: functional
[13] = target: Heat shock protein HSP 90-alpha (Homo sapiens, UniProt P07900); type: functional, organism-based
[14] = target: T6, X-box-binding protein 1 (Homo sapiens, UniProt P17861); type: functional, Cricetulus griseus;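 also: confirmatory dose-response counter-screen serving a CHOP assay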
T6 sequence (P17861 whole entry): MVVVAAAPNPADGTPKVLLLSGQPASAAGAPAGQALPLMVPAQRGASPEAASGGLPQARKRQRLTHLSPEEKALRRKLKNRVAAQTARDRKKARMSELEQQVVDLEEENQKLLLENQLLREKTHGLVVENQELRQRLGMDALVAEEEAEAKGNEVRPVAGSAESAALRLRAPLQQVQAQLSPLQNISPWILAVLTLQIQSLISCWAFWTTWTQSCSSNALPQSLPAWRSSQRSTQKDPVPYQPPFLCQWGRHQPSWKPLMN

[15] = target: T7, Voltage-gated N-type calcium channel alpha-1B subunit/Amyloid beta A4 precursor protein-binding family A member 1 (Homo sapiens, UniProt Q00975+Q02410); type: protein assay
T7 sequence (Q00975 whole entry): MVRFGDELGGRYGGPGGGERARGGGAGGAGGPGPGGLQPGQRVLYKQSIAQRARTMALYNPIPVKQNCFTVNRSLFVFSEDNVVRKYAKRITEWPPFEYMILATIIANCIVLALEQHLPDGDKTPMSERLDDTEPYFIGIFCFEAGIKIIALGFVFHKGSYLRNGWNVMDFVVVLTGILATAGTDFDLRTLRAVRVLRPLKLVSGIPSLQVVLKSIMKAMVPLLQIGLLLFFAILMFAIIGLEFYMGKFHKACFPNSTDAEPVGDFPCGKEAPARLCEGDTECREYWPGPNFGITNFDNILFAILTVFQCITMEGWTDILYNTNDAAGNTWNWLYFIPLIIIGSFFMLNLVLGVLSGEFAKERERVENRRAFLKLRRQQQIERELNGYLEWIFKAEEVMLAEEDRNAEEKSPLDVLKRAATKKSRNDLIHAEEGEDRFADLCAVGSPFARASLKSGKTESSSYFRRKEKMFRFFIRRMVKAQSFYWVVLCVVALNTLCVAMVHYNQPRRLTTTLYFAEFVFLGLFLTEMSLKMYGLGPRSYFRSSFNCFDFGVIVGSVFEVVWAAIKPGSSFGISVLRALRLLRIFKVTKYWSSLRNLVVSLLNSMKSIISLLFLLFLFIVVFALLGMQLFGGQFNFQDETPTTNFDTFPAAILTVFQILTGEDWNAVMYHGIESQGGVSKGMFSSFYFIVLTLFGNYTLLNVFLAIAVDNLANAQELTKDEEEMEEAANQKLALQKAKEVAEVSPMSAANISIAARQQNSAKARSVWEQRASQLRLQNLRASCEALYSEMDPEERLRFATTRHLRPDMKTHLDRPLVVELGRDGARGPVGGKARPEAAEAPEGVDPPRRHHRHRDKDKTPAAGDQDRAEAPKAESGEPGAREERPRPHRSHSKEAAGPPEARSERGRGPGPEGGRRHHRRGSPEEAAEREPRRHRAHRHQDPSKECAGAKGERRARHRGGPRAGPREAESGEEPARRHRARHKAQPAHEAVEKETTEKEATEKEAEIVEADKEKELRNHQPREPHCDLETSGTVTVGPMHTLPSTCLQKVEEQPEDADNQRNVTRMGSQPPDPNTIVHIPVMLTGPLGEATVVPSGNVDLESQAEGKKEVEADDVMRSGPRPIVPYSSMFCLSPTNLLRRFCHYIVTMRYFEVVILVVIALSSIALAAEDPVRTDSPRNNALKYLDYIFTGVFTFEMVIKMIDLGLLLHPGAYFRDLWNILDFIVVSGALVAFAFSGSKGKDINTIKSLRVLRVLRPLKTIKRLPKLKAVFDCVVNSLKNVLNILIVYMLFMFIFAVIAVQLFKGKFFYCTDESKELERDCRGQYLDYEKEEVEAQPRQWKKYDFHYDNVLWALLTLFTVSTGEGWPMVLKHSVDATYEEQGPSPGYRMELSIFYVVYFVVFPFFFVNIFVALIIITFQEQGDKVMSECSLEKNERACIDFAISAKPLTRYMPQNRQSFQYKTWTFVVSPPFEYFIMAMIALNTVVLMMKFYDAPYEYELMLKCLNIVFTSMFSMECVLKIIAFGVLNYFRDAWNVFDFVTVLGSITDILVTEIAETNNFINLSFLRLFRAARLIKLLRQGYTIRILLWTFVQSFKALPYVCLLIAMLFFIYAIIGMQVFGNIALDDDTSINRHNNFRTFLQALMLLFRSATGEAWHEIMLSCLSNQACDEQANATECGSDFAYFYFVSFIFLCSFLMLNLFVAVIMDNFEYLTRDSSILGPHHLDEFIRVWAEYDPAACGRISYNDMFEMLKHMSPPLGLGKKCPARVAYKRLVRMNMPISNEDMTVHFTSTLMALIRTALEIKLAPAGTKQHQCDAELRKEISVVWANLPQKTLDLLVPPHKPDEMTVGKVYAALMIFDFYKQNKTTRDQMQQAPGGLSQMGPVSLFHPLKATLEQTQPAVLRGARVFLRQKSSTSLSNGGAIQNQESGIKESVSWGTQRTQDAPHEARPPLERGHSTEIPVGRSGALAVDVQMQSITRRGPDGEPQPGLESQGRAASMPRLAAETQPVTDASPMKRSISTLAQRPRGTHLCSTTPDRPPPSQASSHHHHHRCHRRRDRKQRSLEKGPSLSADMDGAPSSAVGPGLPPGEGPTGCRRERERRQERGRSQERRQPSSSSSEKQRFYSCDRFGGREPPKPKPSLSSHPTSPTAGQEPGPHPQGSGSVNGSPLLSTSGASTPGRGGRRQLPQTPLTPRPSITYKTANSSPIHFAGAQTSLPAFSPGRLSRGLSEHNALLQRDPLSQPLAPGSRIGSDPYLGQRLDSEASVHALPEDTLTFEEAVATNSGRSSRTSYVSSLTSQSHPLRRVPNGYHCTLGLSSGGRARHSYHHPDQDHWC
T7 sequence (Q02410 whole entry): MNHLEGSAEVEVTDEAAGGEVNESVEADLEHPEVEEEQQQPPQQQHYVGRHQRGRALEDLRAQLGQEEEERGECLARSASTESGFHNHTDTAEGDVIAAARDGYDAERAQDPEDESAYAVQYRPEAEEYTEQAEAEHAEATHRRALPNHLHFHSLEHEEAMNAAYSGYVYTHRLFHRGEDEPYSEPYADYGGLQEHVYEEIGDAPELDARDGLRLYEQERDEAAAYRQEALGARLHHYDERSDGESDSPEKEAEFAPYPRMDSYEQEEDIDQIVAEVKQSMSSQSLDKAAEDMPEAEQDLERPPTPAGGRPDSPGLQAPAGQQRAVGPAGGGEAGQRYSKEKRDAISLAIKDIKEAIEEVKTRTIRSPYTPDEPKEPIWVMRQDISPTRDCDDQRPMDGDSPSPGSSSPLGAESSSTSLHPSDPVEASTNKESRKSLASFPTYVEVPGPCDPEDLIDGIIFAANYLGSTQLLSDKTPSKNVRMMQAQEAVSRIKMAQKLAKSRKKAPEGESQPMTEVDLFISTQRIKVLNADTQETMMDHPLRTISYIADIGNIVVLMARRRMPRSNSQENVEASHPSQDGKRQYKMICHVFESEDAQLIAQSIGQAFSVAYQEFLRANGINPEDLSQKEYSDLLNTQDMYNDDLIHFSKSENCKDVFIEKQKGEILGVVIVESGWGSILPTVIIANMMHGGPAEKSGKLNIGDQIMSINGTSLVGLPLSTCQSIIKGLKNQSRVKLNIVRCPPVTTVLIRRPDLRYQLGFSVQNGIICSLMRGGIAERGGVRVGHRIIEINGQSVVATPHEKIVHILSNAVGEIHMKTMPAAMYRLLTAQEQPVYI

[16] = target: Eukaryotic translation initiation factor 4E (Mus musculus, UniProt P63073); assay: blockers of eIF4G binding by eIF4E – biochemical, TR-FRET, dose response (AID 855); type: functional;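 also: potency for disrupting eIF4E binding to eIF4GI seen as loss of FRET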
Chain of Eukaryotic translation initiation factor 4E (P63073 whole entry): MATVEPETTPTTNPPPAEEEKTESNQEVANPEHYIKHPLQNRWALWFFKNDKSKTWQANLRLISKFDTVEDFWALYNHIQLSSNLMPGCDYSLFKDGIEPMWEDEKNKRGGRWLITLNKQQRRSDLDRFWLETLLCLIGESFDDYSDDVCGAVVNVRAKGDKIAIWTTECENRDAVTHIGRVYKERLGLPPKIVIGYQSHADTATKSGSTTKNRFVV

[17] = viability loss in HeLa cells – cytotoxicity control for MgcRacGAP inhibitor project, dose response (AID 624300); type: functional
[18] = target: T7, Voltage-gated N-type calcium channel alpha-1B subunit/Amyloid beta A4 precursor protein-binding family A member 1; type: protein assay; remark: listed apart in the source
[19] = target: T3, Mannose-6-phosphate isomerase; assay: MPI inhibition at elevated mannose 6-phosphate – biochemical, fluorescence intensity, high mannose 6-phosphate, primary screen (AID 1220)
[20] = Luminescence Cell-Based Dose Confirmation HTS to Identify Inhibitors of Platelet Dense Granule Release. [Related pubchem assays: 1663 (Primary HTS), 1678 (Summary of Project)]; type: functional
[21] = off-target signal loss in HeLa-CEM21 co-culture – HeLa F-luc CTL cells, cherry-picked, counter-screen for HIV-1 Env fusion inhibitor project, dose response (AID 652040); type: functional, cell-based;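 also: potency for signal decrease marking cytotoxic or nonspecific inhibition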
[22] = HIV-1 AD8 envelope cell-cell fusion blockers – cherry-pick, dose response (AID 652062); type: functional, cell-based;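 also: luciferase signal from cell-cell fusion driven by HIV-1 clade B AD8 Env; potency is for inhibitors of fusion seen as a drop in luminescence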
[23] = DRD fibroblast viability loss – cell-based, non-viral oncogenic, luminescence, dose response (AID 1934); type: functional; conditions: Homo sapiens
[24] = target: Paired box protein Pax-8 (Homo sapiens, UniProt Q06710); assay: PAX8 transcriptional activity inhibition in RMG-I – RMG-I cells, luciferase, cherry-pick, dose response (AID 687027); type: functional, cell-based;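 also: luciferase reporter driven by Pax8 target thyroperoxidase promoter measured by SteadyGlo luminescence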
[25] = system: BJ; assay: BJ-TERT fibroblast viability loss – cell-based, RAS-independent, luminescence, dose response (AID 1933); type: functional; conditions: Homo sapiens
[26] = blockers of HIV-1 envelope-mediated cell-cell fusion – cherry-pick, dose response (AID 652057); type: functional, cell-based
[27] = system: BJ; assay: BJ-TERT-LT-ST fibroblast viability loss – cell-based, RAS-independent, luminescence, dose response (AID 1935); type: functional; conditions: Homo sapiens;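 also: BJ fibroblasts immortalized with TERT plus LT and ST oncogenes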
[28] = blockers of HIV-1 ZM109 envelope-driven cell-cell fusion – HeLa effector, CEM target cells, luciferase, cherry-pick, dose response (AID 652058); type: functional, cell-based;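 also: luciferase signal from HIV-1 Env mediated cell-cell fusion of effector and target cells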
[29] = target: Luciferin 4-monooxygenase (Photinus pyralis, UniProt P08659); assay: inhibition of purified Photinus pyralis luciferase – biochemical, luminescence, dose response (AID 1891)
Chain of Luciferin 4-monooxygenase (P08659 whole entry): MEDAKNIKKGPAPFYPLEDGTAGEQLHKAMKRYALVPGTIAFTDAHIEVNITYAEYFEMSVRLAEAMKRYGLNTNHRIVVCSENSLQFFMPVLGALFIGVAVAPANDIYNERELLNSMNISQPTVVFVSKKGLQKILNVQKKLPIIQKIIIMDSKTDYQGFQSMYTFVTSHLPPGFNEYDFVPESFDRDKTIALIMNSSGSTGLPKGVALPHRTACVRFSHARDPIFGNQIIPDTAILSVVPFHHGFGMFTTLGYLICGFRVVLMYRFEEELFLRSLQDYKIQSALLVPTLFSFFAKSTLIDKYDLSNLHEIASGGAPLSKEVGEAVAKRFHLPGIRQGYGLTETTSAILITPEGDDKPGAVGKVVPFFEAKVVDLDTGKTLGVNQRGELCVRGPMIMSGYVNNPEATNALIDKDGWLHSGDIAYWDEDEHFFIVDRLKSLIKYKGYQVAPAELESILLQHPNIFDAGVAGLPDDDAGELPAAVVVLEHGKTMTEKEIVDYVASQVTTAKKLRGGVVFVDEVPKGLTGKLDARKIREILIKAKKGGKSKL

[30] = system: BJ; assay: cells; type: functional, cell-based; conditions: Homo sapiens
[31] = general cell-killing toxicity readout – plate reader, dry powder samples, cytotoxicity control for PAX8 inhibitor project, dose response (AID 743021); type: functional, cell-based
[32] = viability loss in CEM21 cells – cell-based, CellTiter-Glo luminescence, cherry-picked, cytotoxicity control for viral fusion inhibitor project, dose response (AID 652042); type: functional;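 also: potency for signal decrease meaning cytotoxicity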

CN(CCc1ccccn1)C(=O)CC1C(=O)NCCN1Cc1ccc(-c2ccccc2)cc1 (centres undefined)
EC50 [1]: 3.76 µM (active)

CCOC(=O)c1ccccc1NC(=O)Cn1c(-c2nonc2N)nc2ccccc21
IC50 [2]: > 80 µM (inactive)

O=C(O)CCn1cc(C=C2C(=O)NC(=S)NC2=O)c(-c2cccc(Br)c2)n1
IC50 [3]: 6.04 µM (active)
IC50 [4]: 15.8 µM (active)
IC50 [5]: 4.47 µM (active)
IC50 [6]: 11.7 µM (active)
IC50 [7]: 89.9 µM (active)
IC50 [8]: 29.3 µM (active)
IC50 [9]: 9.83 µM (active)
IC50 [10]: > 100 µM (inactive)
IC50 [11]: 2.39 µM (active)

CCCn1ncc(CN2CCC(n3nccc3NC(=O)CCc3ccccc3)CC2)c1C
EC50 [1]: 0.024 µM (active)

COc1ccc(Nc2nc(-c3sc(C)nc3C)cs2)cc1
IC50 [2]: 49.6 µM (inactive)
IC50 [12]: > 80 µM (inactive)

Clc1nss/c1=N\c1ccc(Br)cc1
AC50 [13]: 24.4 µM (active)
Absolute IC50 (XBP1) [14]: < 10 µM
IC50 [15]: 11.6 µM (active)
IC50 [16]: 50 µM (inactive)
CC50 [17]: 100 µM (active)
IC50 [7]: 37.5 µM (active)
IC50 [18]: 4.16 µM (active)
IC50 [9]: 7.28 µM (active)
IC50 [10]: > 100 µM (inactive)
IC50 [19]: > 50 µM (not active)

CN(C)CCNC(=O)c1scc2c1CCCC2
EC50 [1]: 3.35 µM (active)

O=C(O)c1ccc(N/N=C/c2ccc3c(c2)OCO3)cc1
EC50 [20]: < 0.088 µM (active)
IC50 [2]: > 80 µM (inactive)
AC50 [21]: 4.15 µM (active)
AC50 [22]: 5.24 µM (active)
EC50 [23]: 8.19 µM (active)
AC50 [24]: 3.04 µM (active)
EC50 [25]: 13.1 µM (active)
AC50 [26]: 2.44 µM (active)
EC50 [27]: 24.2 µM (active)
AC50 [28]: 9.48 µM (active)
EC50 [29]: < 0.088 µM (active)
EC50 [30]: 8.37 µM (active)
AC50 [31]: 27.7 µM (active)
AC50 [32]: 36.6 µM (active)
